{
  "source": "paper PMC10253321",
  "about": "“Effects of Phosphorylation on the Activity, Inhibition and Stability of Carbonic Anhydrases” (International Journal of Molecular Sciences, 2023)",
  "molecules": {"B1": {"name": "hCAIII: cytosolic human carbonic anhydrase isoform III (protein, UniProt P07451 2-260, looked up)", "Carbonic anhydrase 3": "AKEWGYASHNGPDHWHELFPNAKGENQSPVELHTKDIRHDPSLQPWSVSYDGGSAKTILNNGKTCRVVFDDTYDRSMLRGGPLPGPYRLRQFHLHWGSSDDHGSEHTVDGVKYAAELHLVHWNPKYNTFKEALKQRDGIAVIGIFLKIGHENGEFQIFLDALDKIKTKGKEAPFTKFDPSCLFPACRDYWTYQGSFTTPPCEECIVWLLLKEPMTVSSDQMAKLRSLLSSAENEPPVPLVSNWRPPQPINNRVVRASFK"}},
  "key": {"hCAII": {"tested_on": "hCAII", "parameters": "method as in PMID 12713833", "conditions": "pH 7.8; cited from earlier work"}, "hCAI": {"tested_on": "hCAI", "parameters": "method as in PMID 12713833", "conditions": "pH 7.8; cited from earlier work"}, "[1]": {"assay": "Esterase activity assay in whole-cell lysates", "format": "biochemical, human", "conditions": "kcat/KM vs unmodified isoform"}, "[2]": {"assay": "Differential scanning fluorimetry", "format": "physicochemical, human", "description": "The diminished activity of hCAII^S29E and hCAI^S30E can be attributed to protein unfolding or misfolding upon introduction of a charged residue close to the hydrophobic side of the ligand-binding pocket. The phosphomimic hCAII^S29E was only expressed as a soluble protein when using ArcticExpress E. coli at 10 °C but not with T7 Express or C43 (DE3) E. coli. In ArticExpress cells, a cold-adapted chaperonin is co-expressed to assist folding at low temperatures. In addition, hCAI^S30E expresses at a very low yield in the soluble fraction even with the ArcticExpress system, and below detectable levels in T7 Express or C43 (DE3) E. coli. Moreover, an S > E mutation at Ser29 in another cytosolic carbonic anhydrase isoform (hCAIII) destabilizes the protein and decreases the melting temperature from 59 °C to 43 °C in differential scanning fluorimetry (Figure S5)."}},
  "data": [
    {"molecule": "CC(=O)Oc1ccc([N+](=O)[O-])cc1", "note": "[pNPA, p-nitrophenyl acetate]", "values": [
      {"measurement": "Km", "setting": "hCAII", "result": 2.92, "unit": "mM"},
      {"measurement": "Km", "setting": "hCAI", "result": 15.4, "unit": "mM"}
    ]},
    {"molecule": "hCAI S30E: human carbonic anhydrase I phosphomimic, Ser30 to Glu", "values": [
      {"measurement": "fold decrease in catalytic activity compared to the respective unmodified isoform", "setting": "[1]", "result": 2.7, "unit": "fold"}
    ]},
    {"molecule": "B1", "values": [
      {"measurement": "melting temperature", "setting": "[2]", "result": 59, "unit": "°C"}
    ]}
  ]
}
